Measurements taken from patent EP4603105A1, “PHARMACEUTICAL COMPOSITION CONTAINING CYCLIC COMPOUND HAVING SELECTIVE KRAS INHIBITORY EFFECT AGAINST HRAS AND NRAS” (CHUGAI SEIYAKU KABUSHIKI KAISHA, priority 2022, dated 2024).
*1 amine or outer side, *2 acyl side, *3 side chain or, on linkers, in order; H or OH if unused. Where a SMILES comes first, the peptide text is derived from it. Bridges are numbered along the chain shown (N, C = ends). [ ]: non-standard residue; d: D form. The star is where a group is joined. hPhe(3-Cl-4-CF3) = N[C@@H](CCc1ccc(C(F)(F)F)c(Cl)c1)C(=O)O; NEtPhe(4-Me) = CCN[C@@H](Cc1ccc(C)cc1)C(=O)O; NMePhe(4-Me) = CN[C@@H](Cc1ccc(C)cc1)C(=O)O; X30 = CCN([C@H](C(=O)[*:2])C1CCCC1)[*:1]; NMeGly(cPent) = CN[C@H](C(=O)O)C1CCCC1; Hyp = O=C(O)[C@@H]1C[C@@H](O)CN1; NMeF = CN[C@@H](Cc1ccccc1)C(=O)O; NMeD = CN[C@@H](CC(=O)O)C(=O)O; NMeL = CN[C@@H](CC(C)C)C(=O)O; NMeV = CN[C@H](C(=O)O)C(C)C; Morpholide = C1CN(*)CCO1; NMeA = CN[C@@H](C)C(=O)O; Ac5c = NC1(C(=O)O)CCCC1; Aze = O=C(O)[C@@H]1CCN1; NEtG = CCNCC(=O)O; Sar = CNCC(=O)O

Key:
[1] = target: GDP-bound NRAS wild-type protein (Homo sapiens, UniProt P01111); assay: Binding to NRAS by surface plasmon resonance (SPR), KD and KD ratio to KRAS; details: ratio of KD for GDP-bound NRAS wild-type protein to KD for KRAS
Sequence of GDP-bound NRAS wild-type protein (P01111 whole entry): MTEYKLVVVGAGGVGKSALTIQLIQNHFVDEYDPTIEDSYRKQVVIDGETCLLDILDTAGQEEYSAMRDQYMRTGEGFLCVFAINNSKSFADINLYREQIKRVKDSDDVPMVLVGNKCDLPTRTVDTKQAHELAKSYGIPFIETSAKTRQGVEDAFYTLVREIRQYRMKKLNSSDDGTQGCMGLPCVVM
Experimental: (§1) Surface plasmon resonance was used to analyze the binding affinity of compounds for KRAS, NRAS, and HRAS. The apparatus used was Biacore 8K, 8K+, or T200 (GE Healthcare), and the running buffer used was HBS (10 mM HEPES-NaOH, 150 mM NaCl, pH 7.4) containing 1 mM DTT, 10 mM MgCl2, 0.01% Tween 20, 10 µM GDP, and 4% DMSO.
(§2) Biotinylated Avi-tag fusion KRAS, NRAS, and HRAS proteins were expressed in E. coli BL21 (DE3) strains, and after cells were homogenized, they were purified using Streptavidin Mutein Matrix and Superdex 75. After purification, GDP-loaded KRAS, NRAS, and HRAS proteins were immobilized on the surface of Sensor Chip CAP (Cytiva) coated with Biotin CAPture Reagent in an immobilization amount of about 100 to 300 RU. Binding of each compound was evaluated by the Single Cycle Kinetics method, and a running buffer or a compound solution was added to the RAS protein non-immobilized surface and the immobilized surface to obtain a binding response. The flow rate was set to 100 µL/min, and in the compound-adding cycle, compound solutions having different concentrations were intermittently added for 75 seconds each, starting from a low concentration. […] In the blank cycle, a running buffer was intermittently added and not the compound solution. The Biotin CAPture Reagent and RAS proteins were immobilized for each cycle, and at the end of each cycle, the sensor chip was regenerated by the regeneration solution appended to the Biotin CAPture Kit (Cytiva). Measurement was carried out at 30°C.
(§3) The resulting sensorgram was subjected to curve fitting based on a 1:1 binding model on Biacore Insight Evaluation Software or T200 Evaluation Software, and thereby the dissociation constant KD of each compound with respect to KRAS, NRAS, and HRAS was determined. […] Blank indicates a compound from which the KD value with respect to NRAS or HRAS was not obtained.

[2] = tested on: human lung cancer strain NCI-H441; format: cell-based
Experimental: A test compound was dispensed into a U-bottom 384-well plate as 40 nL serially diluted dimethyl sulfoxide solutions using a liquid handler Echo (LABCYTE). […] This cell suspension was dispensed in an amount of 40 µL per well into a plate containing the test compound, and cultured at 37°C in a 5% carbon dioxide gas incubator. Four days later, 20 µL of CellTiter-Glo (registered trademark) (Promega) was added to each well and […] was measured. […]

HRAS wild-type protein = HRAS wild-type protein (Homo sapiens, UniProt P01112); assay: Binding to HRAS by surface plasmon resonance (SPR), KD and KD ratio to KRAS; details: ratio of KD for HRAS wild-type protein to KD for KRAS
Sequence of HRAS wild-type protein (P01112 whole entry): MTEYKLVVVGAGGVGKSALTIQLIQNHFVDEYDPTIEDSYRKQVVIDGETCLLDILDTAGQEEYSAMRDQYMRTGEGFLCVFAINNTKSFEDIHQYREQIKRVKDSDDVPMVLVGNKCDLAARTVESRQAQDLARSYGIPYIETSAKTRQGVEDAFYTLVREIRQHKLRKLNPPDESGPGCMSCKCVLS
Experimental: as §1, §2, §3

Row | Compound | IC50 [2] | NRAS /KRAS [1] | HRAS /KRAS (HRAS wild-type protein)
1 | CC[C@H](C)[C@@H]1NC(=O)[C@H](CC(C)C)N(C)C(=O)C[C@@H](C(=O)N2CCOCC2)N(C)C(=O)[C@H](C2CCCC2)N(C)C(=O)C2(CCCC2)NC(=O)[C@@H]2CCCN2C(=O)[C@H](CCc2ccc(C(F)(F)F)c(Cl)c2)NC(=O)CN(C)C(=O)[C@H](C2CCCC2)N(CC)C(=O)[C@@H]2CCN2C(=O)[C@H](C)N(C)C1=O [PP0003] ([NMeL]I[NMeA][Aze][X30][Sar][hPhe(3-Cl-4-CF3)]P[Ac5c][NMeGly(cPent)][NMeD]-Morpholide; lactam N-11) | 41.4 nM | C (A compound having a KD ratio of 0.1 or more and less than 3 is denoted as C) | C (A compound having a KD ratio of 0.1 or more and less than 3 is denoted as C)
2 | CC[C@H](C)[C@@H]1NC(=O)[C@H](CC(C)C)N(C)C(=O)C[C@@H](C(=O)N2CCOCC2)N(C)C(=O)[C@H](C2CCCC2)N(C)C(=O)C2(CCCC2)NC(=O)[C@@H]2CCCN2C(=O)[C@H](CCc2ccc(C(F)(F)F)c(Cl)c2)NC(=O)CN(C)C(=O)[C@H](Cc2ccccc2)N(C)C(=O)[C@@H]2CCN2C(=O)[C@H](C)N(C)C1=O [PP0011] ([NMeL]I[NMeA][Aze][NMeF][Sar][hPhe(3-Cl-4-CF3)]P[Ac5c][NMeGly(cPent)][NMeD]-Morpholide; lactam N-11) | 5.8 nM | C (A compound having a KD ratio of 0.1 or more and less than 3 is denoted as C) | C (A compound having a KD ratio of 0.1 or more and less than 3 is denoted as C)
3 | CC[C@H](C)[C@@H]1NC(=O)[C@H](CC(C)C)N(C)C(=O)C[C@@H](C(=O)N2CCOCC2)N(C)C(=O)[C@H](C2CCCC2)N(C)C(=O)C2(CCCC2)NC(=O)[C@@H]2C[C@@H](O)CN2C(=O)[C@H](CCc2ccc(C(F)(F)F)c(Cl)c2)NC(=O)CN(C)C(=O)[C@H](Cc2ccc(C)cc2)N(CC)C(=O)[C@@H]2CCN2C(=O)[C@H](C)N(C)C1=O [PP0013] ([NMeL]I[NMeA][Aze][NEtPhe(4-Me)][Sar][hPhe(3-Cl-4-CF3)][Hyp][Ac5c][NMeGly(cPent)][NMeD]-Morpholide; lactam N-11) | 9.8 nM | C (A compound having a KD ratio of 0.1 or more and less than 3 is denoted as C) | C (A compound having a KD ratio of 0.1 or more and less than 3 is denoted as C)
4 | CC[C@H](C)[C@@H]1NC(=O)[C@H](CC(C)C)N(C)C(=O)C[C@@H](C(=O)N2CCOCC2)N(C)C(=O)[C@H](C(C)C)N(C)C(=O)C2(CCCC2)NC(=O)[C@@H]2CCCN2C(=O)[C@H](CCc2ccc(C(F)(F)F)c(Cl)c2)NC(=O)CN(C)C(=O)[C@H](Cc2ccc(C)cc2)N(CC)C(=O)[C@@H]2CCN2C(=O)[C@H](C)N(C)C1=O [PP0015] ([NMeL]I[NMeA][Aze][NEtPhe(4-Me)][Sar][hPhe(3-Cl-4-CF3)]P[Ac5c][NMeV][NMeD]-Morpholide; lactam N-11) | 24.5 nM | C (A compound having a KD ratio of 0.1 or more and less than 3 is denoted as C) | C (A compound having a KD ratio of 0.1 or more and less than 3 is denoted as C)
5 | CC[C@H](C)[C@@H]1NC(=O)[C@H](CC(C)C)N(C)C(=O)C[C@@H](C(=O)N2CCOCC2)N(C)C(=O)[C@H](C2CCCC2)N(C)C(=O)C2(CCCC2)NC(=O)[C@@H]2CCCN2C(=O)[C@H](CCc2ccc(C(F)(F)F)c(Cl)c2)NC(=O)CN(C)C(=O)[C@H](Cc2ccc(C)cc2)N(C)C(=O)CN(C)C(=O)CN(C)C1=O [PP0018] ([NMeL]I[Sar][Sar][NMePhe(4-Me)][Sar][hPhe(3-Cl-4-CF3)]P[Ac5c][NMeGly(cPent)][NMeD]-Morpholide; lactam N-11) | 7 nM | C (A compound having a KD ratio of 0.1 or more and less than 3 is denoted as C) | C (A compound having a KD ratio of 0.1 or more and less than 3 is denoted as C)
6 | CC[C@H](C)[C@@H]1NC(=O)[C@H](CC(C)C)N(C)C(=O)C[C@@H](C(=O)N2CCOCC2)N(C)C(=O)[C@H](C2CCCC2)N(C)C(=O)C2(CCCC2)NC(=O)[C@@H]2CCCN2C(=O)[C@H](CCc2ccc(C(F)(F)F)c(Cl)c2)NC(=O)CN(C)C(=O)[C@H](Cc2ccc(C)cc2)N(C)C(=O)CN(CC)C(=O)CN(C)C1=O [PP0019] ([NMeL]I[Sar][NEtG][NMePhe(4-Me)][Sar][hPhe(3-Cl-4-CF3)]P[Ac5c][NMeGly(cPent)][NMeD]-Morpholide; lactam N-11) | 6.7 nM | C (A compound having a KD ratio of 0.1 or more and less than 3 is denoted as C) | C (A compound having a KD ratio of 0.1 or more and less than 3 is denoted as C)

Further lines, with some results ahead:

Row | IC50 [2] | Compound | NRAS /KRAS [1] | HRAS /KRAS (HRAS wild-type protein)
7 | 52.9 nM | CC[C@H](C)[C@@H]1NC(=O)[C@H](CC(C)C)N(C)C(=O)C[C@@H](C(=O)N2CCOCC2)N(C)C(=O)[C@H](C2CCCC2)N(C)C(=O)C2(CCCC2)NC(=O)[C@@H]2CCCN2C(=O)[C@H](CCc2ccc(C(F)(F)F)c(Cl)c2)NC(=O)CN(CC)C(=O)[C@H](Cc2ccc(C)cc2)N(C)C(=O)[C@@H]2CCN2C(=O)[C@H](C)N(C)C1=O [PP0004] ([NMeL]I[NMeA][Aze][NMePhe(4-Me)][NEtG][hPhe(3-Cl-4-CF3)]P[Ac5c][NMeGly(cPent)][NMeD]-Morpholide; lactam N-11) | C (A compound having a KD ratio of 0.1 or more and less than 3 is denoted as C) | C (A compound having a KD ratio of 0.1 or more and less than 3 is denoted as C)
8 | 20.6 nM | CC[C@H](C)[C@@H]1NC(=O)[C@H](CC(C)C)N(C)C(=O)C[C@@H](C(=O)N2CCOCC2)N(C)C(=O)[C@H](C2CCCC2)N(C)C(=O)C2(CCCC2)NC(=O)[C@@H]2CCCN2C(=O)[C@H](CCc2ccc(C(F)(F)F)c(Cl)c2)NC(=O)CN(CC)C(=O)[C@H](Cc2ccc(C)cc2)N(CC)C(=O)[C@@H]2CCN2C(=O)[C@H](C)N(C)C1=O [PP0006] ([NMeL]I[NMeA][Aze][NEtPhe(4-Me)][NEtG][hPhe(3-Cl-4-CF3)]P[Ac5c][NMeGly(cPent)][NMeD]-Morpholide; lactam N-11) | C (A compound having a KD ratio of 0.1 or more and less than 3 is denoted as C) | C (A compound having a KD ratio of 0.1 or more and less than 3 is denoted as C)
9 | 4.8 nM | CC[C@H](C)[C@@H]1NC(=O)[C@H](C)N(C)C(=O)C[C@@H](C(=O)N2CCOCC2)N(C)C(=O)[C@H](C2CCCC2)N(C)C(=O)C2(CCCC2)NC(=O)[C@@H]2CCCN2C(=O)[C@H](CCc2ccc(C(F)(F)F)c(Cl)c2)NC(=O)CN(C)C(=O)[C@H](Cc2ccc(C)cc2)N(CC)C(=O)[C@@H]2CCN2C(=O)[C@H](C)N(C)C1=O [PP0007] ([NMeA]I[NMeA][Aze][NEtPhe(4-Me)][Sar][hPhe(3-Cl-4-CF3)]P[Ac5c][NMeGly(cPent)][NMeD]-Morpholide; lactam N-11) | C (A compound having a KD ratio of 0.1 or more and less than 3 is denoted as C) | C (A compound having a KD ratio of 0.1 or more and less than 3 is denoted as C)
10 | 2 nM | CCO[C@@H]1C[C@H]2C(=O)NC3(CCCC3)C(=O)N(C)[C@@H](C3CCCC3)C(=O)N(C)[C@H](C(=O)N3CCOCC3)CC(=O)N(C)[C@@H](CC(C)C)C(=O)N[C@@H]([C@@H](C)CC)C(=O)N(C)[C@@H](C)C(=O)N3CC[C@H]3C(=O)N(CC)[C@@H](Cc3ccc(C)cc3)C(=O)N(C)CC(=O)N[C@@H](CCc3ccc(C(F)(F)F)c(Cl)c3)C(=O)N2C1 [PP0014] ([NMeL]I[NMeA][Aze][NEtPhe(4-Me)][Sar][hPhe(3-Cl-4-CF3)][Hyp](Et)[Ac5c][NMeGly(cPent)][NMeD]-Morpholide; lactam N-11) | C (A compound having a KD ratio of 0.1 or more and less than 3 is denoted as C) | C (A compound having a KD ratio of 0.1 or more and less than 3 is denoted as C)
11 | 24.6 nM | CC[C@H](C)[C@@H]1NC(=O)[C@H](CC(C)C)N(C)C(=O)C[C@@H](C(=O)N2CCOCC2)N(C)C(=O)[C@H](CC(C)C)N(C)C(=O)C2(CCCC2)NC(=O)[C@@H]2CCCN2C(=O)[C@H](CCc2ccc(C(F)(F)F)c(Cl)c2)NC(=O)CN(C)C(=O)[C@H](Cc2ccc(C)cc2)N(CC)C(=O)[C@@H]2CCN2C(=O)[C@H](C)N(C)C1=O [PP0016] ([NMeL]I[NMeA][Aze][NEtPhe(4-Me)][Sar][hPhe(3-Cl-4-CF3)]P[Ac5c][NMeL][NMeD]-Morpholide; lactam N-11) | C (A compound having a KD ratio of 0.1 or more and less than 3 is denoted as C) | C (A compound having a KD ratio of 0.1 or more and less than 3 is denoted as C)
